Activity calls are given as the source filed them.
Tests used:
Orexin receptor type 2 [1] = target: T1, Orexin receptor type 2 (Homo sapiens, UniProt O43614); experiment: Counterscreen assay for antagonists of the orexin 1 receptor (OX1R; HCRTR1): Homogeneous Time Resolved Fluorescence (HTRF)-based cell-based dose response assay for antagonists of the orexin 2 receptor (OX2R; HCRTR2), run by assay provider.; assay type: functional
T1 sequence (O43614 whole entry): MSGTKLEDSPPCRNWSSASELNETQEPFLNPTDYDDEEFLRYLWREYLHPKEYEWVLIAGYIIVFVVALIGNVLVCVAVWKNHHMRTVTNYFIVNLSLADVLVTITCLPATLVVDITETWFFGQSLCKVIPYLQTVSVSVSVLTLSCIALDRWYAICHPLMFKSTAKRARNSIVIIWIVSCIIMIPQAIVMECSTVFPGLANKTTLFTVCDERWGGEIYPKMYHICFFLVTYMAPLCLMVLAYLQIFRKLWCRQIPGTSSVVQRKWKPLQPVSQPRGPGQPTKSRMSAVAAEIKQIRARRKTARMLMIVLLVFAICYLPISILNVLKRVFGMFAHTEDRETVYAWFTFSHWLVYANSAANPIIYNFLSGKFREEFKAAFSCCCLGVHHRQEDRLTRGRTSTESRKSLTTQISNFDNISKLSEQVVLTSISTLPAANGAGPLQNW

[2] = target: T2, Orexin/Hypocretin receptor type 1 (Homo sapiens, UniProt O43613); experiment: Homogeneous Time Resolved Fluorescence (HTRF)-based cell-based high throughput dose response assay for antagonists of the orexin 1 receptor (OX1R; HCRTR1). [Related pubchem assays (depositor defined):AID434989, AID435008, AID463079, AID485270, AID492963, AID492964, AID492965, AID493232, AID504717, AID504718]; assay type: functional
T2 sequence (O43613 whole entry): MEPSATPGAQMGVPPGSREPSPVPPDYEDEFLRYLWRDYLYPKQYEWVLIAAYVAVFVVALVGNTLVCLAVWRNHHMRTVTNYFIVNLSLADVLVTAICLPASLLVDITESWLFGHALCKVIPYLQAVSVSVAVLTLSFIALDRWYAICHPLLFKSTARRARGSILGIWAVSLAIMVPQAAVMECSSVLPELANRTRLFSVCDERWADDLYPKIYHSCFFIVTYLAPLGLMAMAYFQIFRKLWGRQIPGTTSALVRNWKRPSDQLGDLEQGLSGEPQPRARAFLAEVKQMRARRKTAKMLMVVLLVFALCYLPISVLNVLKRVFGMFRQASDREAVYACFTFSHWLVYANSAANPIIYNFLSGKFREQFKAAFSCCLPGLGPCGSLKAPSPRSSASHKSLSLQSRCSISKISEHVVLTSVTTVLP

[3] = target: T2, Orexin/Hypocretin receptor type 1; experiment: Fluorescence-based cell-based high throughput dose response assay for antagonists of the orexin 1 receptor (OX1R; HCRTR1). [Related pubchem assays (depositor defined):AID434989, AID435008, AID463079, AID485270, AID492963, AID492964, AID492965, AID493232, AID504717, AID504718]; assay type: functional
[4] = (§1) Counterscreen for antagonists of the orexin 1 receptor (OX1R; HCRTR1): Fluorescence-based cell-based high throughput dose response assay to identify antagonists of the parental CHO cell line. [Related pubchem assays (depositor defined):AID434989, AID435008, AID463079, AID485270, AID492963, AID492964, AID492965, AID493232, AID504699, AID504701]; assay type: functional
CHO-K1 = experiment: as §1, with “Homogeneous time resolved fluorescence (HTRF)-based” for “Fluorescence-based”, “cell-based” for “cell-based high throughput”, “CHO-K1” for “CHO”; assay type: functional; conditions: Cricetulus griseus;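 also: potency for inhibition of ATP-stimulated IP1 production as antagonists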
Orexin receptor type 2 [5] = target: T1, Orexin receptor type 2; experiment: Counterscreen assay for antagonists of the orexin 1 receptor (OX1R; HCRTR1): Fluorescence-based cell-based dose response assay for antagonists of the orexin 2 receptor (OX2R; HCRTR2), run by assay provider.; assay type: functional
[6] = reduced cellular PGC1a acetyl-lysine signal – cell-based, cherry-picked samples, dose response (AID 720514); assay type: functional;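 also: potency may reflect raised or lowered acetylation signal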
BJ [7] = experiment: cells; assay type: functional, cell-based; conditions: Homo sapiens
[8] = target: T3, Ubiquitin-conjugating enzyme E2 N (Homo sapiens, UniProt P61088); assay type: functional;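 also: Dose-response confirmation in a TR-FRET assay detecting UBC13-driven polyubiquitin chain formation, inhibition measured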
T3 sequence (P61088 whole entry): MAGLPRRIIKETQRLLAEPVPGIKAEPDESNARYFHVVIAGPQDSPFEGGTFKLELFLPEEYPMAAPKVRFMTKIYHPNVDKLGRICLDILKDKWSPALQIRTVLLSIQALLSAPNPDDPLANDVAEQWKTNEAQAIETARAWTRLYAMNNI

BJ [9] = experiment: growth inhibition of engineered Ras-driven BJ cells – cell-based, alamar blue fluorescence, cherrypicked samples, dose response (AID 2631); assay type: functional; conditions: Homo sapiens;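 also: confirmatory dose-response assay in RAS-dependent BJ fibroblasts engineered with TERT, LT and ST, with cytotoxicity read by fluorescence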
[10] = A549 cell cytotoxicity, dose response, cytotoxicity control, plate reader, cherry-pick, antagonist series (AID 743412); assay type: functional, cell-based
[11] = Luminescence Cell-Based Dose Response HTS to Identify Inhibitors of 5'UTR Stem-Loop Driven Prion Protein mRNA Translation in H4 Neuroglioblastoma Cells. [Related pubchem assays: 1827 (Project Summary), 1813 (Primary HTS)]; assay type: functional
HEK293 [12] = experiment: optical interference in Abeta FP readout, dose response, artefact control for IDE activator project, biochemical, fluorescence polarization (AID 588442); assay type: functional, cell-based; conditions: Homo sapiens
INS1 = experiment: INS-1E survival protection against cytokine death – cell-based, luminescence, retest, dose response (AID 449756); assay type: functional; conditions: Rattus norvegicus;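 also: cell death triggered by IL-1 beta plus TNF-alpha plus IFN-gamma mixture; protective hits raise ATP signal compared with cytokine alone wells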
[13] = toxicity toward HepG2 liver cells – cell-based, plate reader, cherry-pick, antagonist series, cytotoxicity control, dose response (AID 743416); assay type: functional
[14] = luciferase reporter signal suppression in cells – H4 neuroglioma cells, luminescence, dose response (AID 1990); assay type: functional, cell-based
[15] = tested on: Streptococcus sp. 'group A'; experiment: Streptococcus pyogenes SK(-)GAS viability under kanamycin – luminescence, BacTiterGlo, confirmation, counter-screen for streptokinase expression inhibitor project, dose response (AID 1900); assay type: functional, organism-based
BJ [16] = experiment: BJ-TERT-LT-ST fibroblast viability loss – cell-based, RAS-independent, luminescence, dose response (AID 1935); assay type: functional; conditions: Homo sapiens;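 also: BJ fibroblasts immortalized with TERT plus LT and ST oncogenes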
[17] = DRD fibroblast viability loss – cell-based, non-viral oncogenic, luminescence, dose response (AID 1934); assay type: functional; conditions: Homo sapiens
Streptococcus = experiment: GAS UMAA2166 growth inhibition – luminescence, BacTiterGlo, counter-screen for streptokinase expression inhibitor project, dose response (AID 1915); assay type: functional, organism-based;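 also: potency for reduction of bacterial viability or growth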
BJ [18] = experiment: BJ-TERT fibroblast viability loss – cell-based, RAS-independent, luminescence, dose response (AID 1933); assay type: functional; conditions: Homo sapiens
[19] = alpha-synuclein stem-loop luciferase translation blockers – H4 neuroglioma cells, luminescence, confirmation (AID 1988); assay type: functional, cell-based
HEK293 [20] = experiment: membrane integrity loss in HEK cells – cell-based, fluorescence, cytotoxicity control for IDE activator project, dose response (AID 588440); assay type: functional; conditions: Homo sapiens;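 also: cytotoxicity by LDH release measuring loss of membrane integrity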
[21] = blockers of bursicon-stimulated LGR2 cAMP reporter – cell-based, HEK293, CRE-luciferase reporter, cherry pick, set 2, dose response (AID 743343); assay type: functional;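 also: transfected cells were stimulated with diluted bursicon conditioned medium after compound addition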
[22] = NIH-3T3 fibroblast cytotoxicity, dose response, cytotoxicity control, cell-based, fluorescence, Alamar Blue, secondary assay (AID 2327); assay type: functional;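 also: NIH-3T3 mouse fibroblasts cultured with fluconazole at 8 µg/mL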
[23] = viability loss in HEK293 cells – cell-based, plate reader, cherry-picked samples, cytotoxicity control, dose response (AID 743446); assay type: functional
Insulin-degrading enzyme [24] = target: T4, Insulin-degrading enzyme (Homo sapiens, UniProt P14735); experiment: recombinant IDE activation, cell-free – biochemical, fluorescence polarization, counter-screen for IDE activator project, dose response (AID 588681)
T4 sequence (P14735 whole entry): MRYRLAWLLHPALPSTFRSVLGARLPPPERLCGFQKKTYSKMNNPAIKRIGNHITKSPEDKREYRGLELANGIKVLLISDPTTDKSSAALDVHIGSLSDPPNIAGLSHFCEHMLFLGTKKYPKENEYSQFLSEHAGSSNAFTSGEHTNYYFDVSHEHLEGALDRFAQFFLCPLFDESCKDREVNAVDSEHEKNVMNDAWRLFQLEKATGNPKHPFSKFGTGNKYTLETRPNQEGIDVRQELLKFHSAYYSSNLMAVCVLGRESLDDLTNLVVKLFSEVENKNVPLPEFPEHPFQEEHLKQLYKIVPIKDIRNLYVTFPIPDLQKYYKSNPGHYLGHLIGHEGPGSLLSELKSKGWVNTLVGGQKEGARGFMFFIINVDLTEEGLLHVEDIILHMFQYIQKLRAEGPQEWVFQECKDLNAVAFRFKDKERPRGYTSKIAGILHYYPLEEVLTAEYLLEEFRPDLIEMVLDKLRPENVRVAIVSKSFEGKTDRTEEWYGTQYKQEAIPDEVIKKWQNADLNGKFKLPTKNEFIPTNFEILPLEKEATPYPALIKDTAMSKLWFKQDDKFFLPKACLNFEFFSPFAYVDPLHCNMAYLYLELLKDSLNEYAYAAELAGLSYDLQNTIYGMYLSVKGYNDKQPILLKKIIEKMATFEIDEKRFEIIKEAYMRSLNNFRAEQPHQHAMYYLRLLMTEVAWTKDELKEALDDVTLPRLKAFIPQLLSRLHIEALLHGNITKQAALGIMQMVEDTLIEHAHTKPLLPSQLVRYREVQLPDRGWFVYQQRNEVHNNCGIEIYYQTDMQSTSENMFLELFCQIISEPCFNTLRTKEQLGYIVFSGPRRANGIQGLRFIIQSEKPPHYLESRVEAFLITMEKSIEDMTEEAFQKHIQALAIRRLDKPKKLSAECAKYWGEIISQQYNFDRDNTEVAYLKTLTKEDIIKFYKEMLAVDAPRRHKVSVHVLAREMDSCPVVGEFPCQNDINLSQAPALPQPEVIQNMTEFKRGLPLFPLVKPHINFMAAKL

[25] = blockade of melanocortin 4 receptor signaling – cell-based, plate reader, cherry pick, counter-screen for LGR2 antagonist project, dose response (AID 743444); assay type: functional;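 also: transfected HEK 293 cells stimulated with alpha-MSH peptide; potency of inhibitors of the alpha-MSH evoked signal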
[26] = HEK-293T viability loss after treatment – luminescence, T-cell screen hits, cytotoxicity control for TCR NF-kB inhibitor project, dose response (AID 489026); assay type: functional, cell-based;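 also: cells exposed to compound about 14 hours before the viability readout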
Insulin-degrading enzyme [27] = target: T4, Insulin-degrading enzyme; experiment: cellular IDE activation of Abeta substrate cleavage – fluorescence polarization, HEK cells, dose response (AID 588439); assay type: functional, cell-based
[28] = fluconazole-exposed Candida albicans growth modulators – fluorescence, retest, confirmation (AID 2467); assay type: functional, cell-based
Paired box protein Pax-8 = Paired box protein Pax-8 (Homo sapiens, UniProt Q06710); experiment: PAX8 transcriptional activity inhibition in RMG-I – RMG-I cells, luciferase, cherry-pick, dose response (AID 687027); assay type: functional, cell-based;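 also: luciferase reporter driven by Pax8 target thyroperoxidase promoter measured by SteadyGlo luminescence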
[29] = target: T5, Calpain-2 catalytic subunit (Sus scrofa, UniProt P43367); experiment: m-calpain protease blockers, concentration series – biochemical, fluorogenic peptide substrate, dose response (AID 1420); assay type: functional
T5 sequence (P43367 whole entry): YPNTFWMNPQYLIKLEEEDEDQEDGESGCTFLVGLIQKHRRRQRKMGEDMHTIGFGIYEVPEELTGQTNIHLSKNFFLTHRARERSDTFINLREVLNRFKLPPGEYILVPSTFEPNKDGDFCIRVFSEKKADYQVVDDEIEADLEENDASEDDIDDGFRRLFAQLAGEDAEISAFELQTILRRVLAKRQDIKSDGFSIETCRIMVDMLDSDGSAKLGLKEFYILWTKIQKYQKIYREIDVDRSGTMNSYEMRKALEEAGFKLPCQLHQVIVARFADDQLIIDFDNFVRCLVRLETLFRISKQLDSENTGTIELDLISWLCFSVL

Paired box protein Pax-8, sequence (Q06710 whole entry): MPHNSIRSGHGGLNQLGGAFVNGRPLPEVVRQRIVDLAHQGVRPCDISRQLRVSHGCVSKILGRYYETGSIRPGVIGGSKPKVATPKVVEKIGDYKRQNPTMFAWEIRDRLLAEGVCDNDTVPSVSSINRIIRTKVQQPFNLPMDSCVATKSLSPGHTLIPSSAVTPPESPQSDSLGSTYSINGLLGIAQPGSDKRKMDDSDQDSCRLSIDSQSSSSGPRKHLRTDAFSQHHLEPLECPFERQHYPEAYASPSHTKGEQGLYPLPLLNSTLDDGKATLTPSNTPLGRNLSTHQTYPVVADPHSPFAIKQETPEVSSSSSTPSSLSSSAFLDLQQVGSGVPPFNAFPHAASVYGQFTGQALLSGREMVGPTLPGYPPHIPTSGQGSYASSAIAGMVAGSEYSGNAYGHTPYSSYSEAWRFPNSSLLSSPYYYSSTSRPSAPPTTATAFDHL

N#CC(=C1CCCC1)c1nc(-c2ccccc2O)cs1
IC50 (Orexin receptor type 2 [1]): 19.8 µM (inactive) | IC50 [2]: 6.33 µM (active) | IC50 [3]: 6.43 µM (active) | IC50 [4]: > 49.7 µM (inactive) | IC50 (CHO-K1): > 66.2 µM (inactive) | IC50 (Orexin receptor type 2 [5]): 31.6 µM (inactive)

CNC[C@@H](CC1CCCCC1)NC[C@H](CC(C)C)NCCc1cccc(C(F)(F)F)c1
AC50 [6]: 3.24 µM (active) | EC50 (BJ [7]): 7.22 µM (inconclusive) | IC50 [8]: > 20 µM (inactive) | EC50 (BJ [9]): 1.86 µM (inconclusive) | AC50 [10]: 4.66 µM (active) | EC50 [11]: 8.87 µM (active) | EC50 (HEK293 [12]): > 54.7 µM (inactive) | AC50 (INS1): 3.59 µM (active) | AC50 [13]: 3.86 µM (active) | EC50 [14]: > 120 µM (not active) | EC50 [15]: 2.79 µM (active) | EC50 (BJ [16]): 2.08 µM (active) | EC50 [17]: 4.69 µM (active) | EC50 (Streptococcus): 9.26 µM (active) | EC50 (BJ [18]): 2.66 µM (inconclusive) | EC50 [19]: 7.84 µM (active) | IC50 (HEK293 [20]): 6.35 µM (active) | AC50 [21]: 14.6 µM (active) | EC50 [22]: 7.53 µM (inconclusive) | AC50 [23]: 7.81 µM (active) | EC50 (Insulin-degrading enzyme [24]): > 54.7 µM (inactive) | AC50 [25]: 22.5 µM (active) | IC50 [26]: 29 µM (inactive) | EC50 (Insulin-degrading enzyme [27]): 6.62 µM (active) | EC50 [28]: > 38 µM (not active) | AC50 (Paired box protein Pax-8): 9.93 µM (active)

O=C(CSc1ccc(-c2ccccc2)nn1)c1cccs1
IC50 (Orexin receptor type 2 [1]): > 50 µM (inactive) | IC50 [2]: 1.08 µM (active) | IC50 [29]: > 50 µM (not active) | IC50 [3]: 3.37 µM (active) | IC50 [4]: > 49.8 µM (inactive) | IC50 (CHO-K1): > 66.2 µM (inactive) | IC50 (Orexin receptor type 2 [5]): > 88.8 µM (inactive)

From ChEMBL document CHEMBL1201862, “PubChem BioAssay data set” (2004)
